Among the data in US4966973A, “2-substituted coumaran derivatives” (Takeda Chemical Industries, Ltd., priority 1988, dated 1990) are inhibition values, retold here.

This test addresses T1, 5-lipoxygenase (Rattus norvegicus, UniProt P12527).
T1 construct: endogenous in cells; host or cells: RBL-1 (rat basophilic leukemia) cells
T1 sequence (P12527 1-673): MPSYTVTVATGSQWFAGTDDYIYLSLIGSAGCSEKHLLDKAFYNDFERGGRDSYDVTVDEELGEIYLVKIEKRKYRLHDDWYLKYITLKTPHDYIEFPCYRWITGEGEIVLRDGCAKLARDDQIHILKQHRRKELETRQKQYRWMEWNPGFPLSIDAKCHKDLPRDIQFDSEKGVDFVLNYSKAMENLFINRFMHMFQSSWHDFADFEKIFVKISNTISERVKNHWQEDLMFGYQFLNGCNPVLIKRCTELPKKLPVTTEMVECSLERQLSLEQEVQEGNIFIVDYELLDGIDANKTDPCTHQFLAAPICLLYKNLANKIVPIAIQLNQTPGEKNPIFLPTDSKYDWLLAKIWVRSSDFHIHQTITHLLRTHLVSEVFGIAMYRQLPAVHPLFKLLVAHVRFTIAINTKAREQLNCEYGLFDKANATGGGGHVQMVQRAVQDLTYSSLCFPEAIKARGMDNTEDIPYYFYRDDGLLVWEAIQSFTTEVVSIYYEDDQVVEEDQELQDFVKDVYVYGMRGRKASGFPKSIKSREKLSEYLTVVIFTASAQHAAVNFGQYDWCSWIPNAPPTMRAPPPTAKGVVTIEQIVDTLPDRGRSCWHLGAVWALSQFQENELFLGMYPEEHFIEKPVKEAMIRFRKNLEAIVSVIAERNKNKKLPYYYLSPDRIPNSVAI
Put plainly: Effect of Inhibiting 5-Lipoxygenase (inhibition of 5-HETE production in RBL-1 cells, HPLC). The class given is cell-based. Conditions: arachidonic acid + A-23187, 37° C., 20 min, read-out: % Inhibition (IE) of 5-HETE production; for inhibition at 10 µM: 10^-5 M; for inhibition at 1 µM: 10^-6 M; for inhibition at 0.1 µM: 10^-7 M; for inhibition at 0.01 µM: 10^-8 M. How it is done: In 0.5 ml of MCM (mast cell medium) was suspended 10^7 of rat basophilic leukemia (RBL-1) cells. To this suspension was added the test solution previously prepared [consisting of 0.5 ml of MCM, […] of arachidonic acid, 10 μg of calcium ionophore A-23187 and the test compound (final concentrations 10 μM, 1 μM, 0.1 μM and 0.01 μM)], and the reaction was allowed to proceed at 37° C. for 20 minutes. To the reaction mixture was added 4 ml of ethanol, which was shaken sufficiently, followed by leaving the resultant mixture standing for 10 minutes at room temperatures. The resultant mixture was subjected to a centrifuge (2000 rpm) for 10 minutes, then the supernatant was separated. Thus-separated supernatant was concentrated to dryness under reduced pressure. To the concentrate was added 0.5 ml of a 60% aqueous methanol. A 100 μl portion of this solution was taken and subjected to high performance liquid chromatography to determine 5-HETE (5-hydroxyeicosatetraenoic acid) quantitatively. UV absorption of 5-HETE at 237 nm was measured with a UV absorption monitor. The inhibitory effect (IE) of 5-HETE is expressed by (1-b/a) x 100. In this formula, a means the height of the peak or the area of the peak in the case of presence of no compound (I), while b means the height of the peak or the area of the peak in the case of containing the compound (I).

As a reminder, the inhibition is the drop in the measured response relative to a control, in per cent. Take `Cc1c(C)c2c(c(C)c1O)CC(CSCCC(=O)O)O2` (centres unmarked) [Compound 1]: the inhibition at 10 µM is 100%, the inhibition at 1 µM worked out at 100%, the inhibition at 0.1 µM turned out to be 64% and the inhibition at 0.01 µM was determined as 13%.

Take `Cc1c(C)c2c(c(C)c1O)CC(CSc1ccccc1)O2` (centres unmarked) [Compound 3]: the inhibition at 10 µM stood at 100%, the inhibition at 1 µM was determined as 100%, the inhibition at 0.1 µM is 100% and the inhibition at 0.01 µM was determined as 42%.

As for `CCCCCCCCSCC1Cc2c(C)c(O)c(C)c(C)c2O1` (centres unmarked) [Compound 5], the inhibition at 10 µM is 100%, the inhibition at 1 µM stood at 100%, the inhibition at 0.1 µM amounted to 48% and the inhibition at 0.01 µM worked out at 24%.

In the case of `Cc1c(C)c2c(c(C)c1O)CC(CSc1ccccn1)O2` (centres unmarked) [Compound 7], the inhibition at 10 µM worked out at 100%, the inhibition at 1 µM was 100% and the inhibition at 0.1 µM came to 45%.

Take `Cc1c(C)c2c(c(C)c1O)CC(CSc1ccc(F)cc1)O2` (centres unmarked) [Compound 9]: the inhibition at 10 µM was 100%, the inhibition at 1 µM stood at 100%, the inhibition at 0.1 µM was determined as 96% and the inhibition at 0.01 µM is 8%.

In the case of `Cc1c(C)c2c(c(C)c1O)CC(CSc1ccc3ccccc3c1)O2` (centres unmarked) [Compound 11], the inhibition at 10 µM turned out to be 100%, the inhibition at 1 µM turned out to be 100% and the inhibition at 0.1 µM came to 19%.

As for `Cc1c(C)c2c(c(C)c1O)CC(C[S+]([O-])c1ccccc1)O2` (centres unmarked) [Compound 13], the inhibition at 10 µM is 100%, the inhibition at 1 µM was found to be 100% and the inhibition at 0.1 µM was 8%.

With `Cc1c(C)c2c(c(C)c1O)CC(CS(=O)(=O)c1ccccc1)O2` (centres unmarked) [Compound 15], the inhibition at 10 µM was 100%, the inhibition at 1 µM was found to be 100%, the inhibition at 0.1 µM turned out to be 19% and the inhibition at 0.01 µM is 10%.

As for `Cc1c(C)c2c(c(C)c1O)CC(CSCc1ccccc1)O2` (centres unmarked) [Compound 17], the inhibition at 10 µM came out at 100%, the inhibition at 1 µM amounted to 100% and the inhibition at 0.1 µM was 88%.

Consider `Cc1c(C)c2c(c(C)c1O)CC(C)(CSc1ccccc1)O2` (centres unmarked) [Compound 19], for which the inhibition at 10 µM worked out at 100%, the inhibition at 1 µM came out at 99%, the inhibition at 0.1 µM amounted to 87% and the inhibition at 0.01 µM is -5%.

As to `Cc1c(C)c2c(c(C)c1O)CC(C)(CSc1ccc(F)cc1)O2` (centres unmarked) [Compound 21], the inhibition at 10 µM amounted to 100%, the inhibition at 1 µM was 100%, the inhibition at 0.1 µM was 98% and the inhibition at 0.01 µM amounted to 18%.

In the case of `Cc1c(C)c2c(c(C)c1O)CC(C)(CNCCc1ccccc1)O2` (centres unmarked) [Compound 25], the inhibition at 10 µM amounted to 95%, the inhibition at 1 µM is 99%, the inhibition at 0.1 µM came out at 94% and the inhibition at 0.01 µM came to 14%.
